The text below walks through data of patent US20240199542A1, “SUBSTITUTED PYRROLIDIN-2-ONES, SALTS THEREOF AND THEIR USE AS HERBICIDALLY ACTIVE SUBSTANCES” (Bayer Aktiengesellschaft, priority 2021, published 2024).

What all share (format): in vivo
The subject of data set [1] is Brassica napus (BRSNW). Put plainly: Post-emergence effects on crop plants. The following applies: application rate 320 g/ha, crop plant Brassica napus (BRSNW). The text has this: (§1) Seeds of mono- and dicotyledonous weed plants and crop plants were sown, in plastic or organic planting pots, in sandy loam, covered with soil and grown in a greenhouse under controlled growth conditions. 2 to 3 weeks after sowing, the test plants were sprayed in the single-leaf stage. The compounds according to the invention, formulated in form of wettable powders (WP) or as emulsifiable concentrates (EC), were sprayed onto the green plant parts as aqueous suspension or emulsion, with the addition of 0.5% of an additive, at an application rate of 600 1 of water/ha (converted). The test plants were placed in the greenhouse for ca. 3 weeks under optimum growth conditions, and then the effect of the preparations was assessed visually in comparison with untreated controls (herbicidal effect in percent (%): 100% effect=plants have died off, 0% effect=as control plants).
(§2) Tables D1 to D3 below show the effects of selected compounds of the general formula (I) according to table 1 on various crop plants and an application rate corresponding to 320 g/ha or below obtained by the experimental procedure mentioned above in biology section B.

Data set [2] concerns Glycine max (GLXMA). Put plainly: Post-emergence effects on crop plants. The following applies: crop plant.
Source text: as §1, §2

Data set [3] has as its system Zea Mays (ZEAMX). Put plainly: Post-emergence effects on crop plants. The following applies: crop plant.
Source text: as §1, §2

The test system of data set [4] is Avena fatua (AVEFA). In words: Herbicidal pre-emergence action. The following applies: graded after ca. 3 weeks. Put shortly: (§3)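 Seeds sown in sandy loam and covered with soil; WP- or EC-formulated compounds applied to the covering soil surface as aqueous suspension/emulsion with 0.5% additive at 600 l water/ha, rates of 1280 g/ha or lower. Greenhouse growth; visual damage scored after ca. 3 weeks versus untreated controls (0–100%).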

The subject of data set [5] is Avena fatua (AVEFA). In words: Herbicidal post-emergence action. The following applies: assessed after ca. 3 weeks. Put shortly:
(§4)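 Seeds were sown in sandy loam and grown under controlled greenhouse conditions. At the single-leaf stage (2 to 3 weeks), green parts were sprayed with the aqueous formulated compound (0.5% additive, 600 l water/ha, 1280 or 320 g/ha). About 3 weeks later, effect was rated visually in percent against untreated plants.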

Data set [6] relates to Brassica napus (BRSNW). In words: Pre-emergence effects on crop plants. The following applies: 320 g/ha, crop plant. The text has this:
(§5) Seeds of mono- and dicotyledonous weed plants and crop plants were sown, in plastic or organic planting pots, in sandy loam and covered with soil. The compounds according to the invention, formulated in the form of wettable powders (WP) or as emulsifiable concentrates (EC), were applied to the surface of the covering soil as aqueous suspension or emulsion, with the addition of 0.5% of an additive, at an application rate of 600 1 of water/ha (converted).
(§6) Following treatment, the pots were placed in a greenhouse and kept under optimum growth conditions for the test plants. The visual grading of the damage to the test plants was carried out after ca. 3 weeks in comparison to untreated controls (herbicidal effect in percent (%): 100% effect=plants have died off, 0% effect=as control plants).
(§7) Tables C1 to C3 below show the effects of selected compounds of the general formula (I) according to table 1 on various crop plants and an application rate corresponding to 320 g/ha or below obtained by the experimental procedure mentioned above in biology section A.

Data set [7] deals with Glycine max (GLXMA). In words: Pre-emergence effects on crop plants. The following applies: 320 g/ha, crop plant.
Source text: as §5, §6, §7

Data set [8] deals with Zea Mays (ZEAMX). Put plainly: Pre-emergence effects on crop plants. The following applies: 320 g/ha, crop plant.
Source text: as §5, §6, §7

Data set [9] deals with Alopecurus myosuroides (ALOMY). Put plainly: Herbicidal pre-emergence action. The following applies: graded after ca. 3 weeks. The procedure, abridged: as §3
In data set [10] the test system is Digitaria sanguinalis (DIGSA). In words: Herbicidal pre-emergence action. The following applies: 320 g/ha, graded after ca. 3 weeks. Put shortly:
as §3

The subject of data set [11] is Alopecurus myosuroides (ALOMY). In words: Herbicidal post-emergence action. The following applies: assessed after ca. 3 weeks. Put shortly:
as §4

The subject of data set [12] is Echinochloa crus-galli (ECHCG). Put plainly: Herbicidal post-emergence action. The following applies: assessed after ca. 3 weeks. The procedure, abridged:
as §4

Data set [13] relates to Lolium multiflorum (LOLMU). Put plainly: Herbicidal post-emergence action. The following applies: assessed after ca. 3 weeks. Put shortly: as §4
The subject of data set [14] is Digitaria sanguinalis (DIGSA). Put plainly: Herbicidal post-emergence action. The following applies: 320 g/ha, assessed after ca. 3 weeks. The procedure, abridged:
as §4

In data set [15] the test system is Echinochloa crus-galli (ECHCG). Put plainly: Herbicidal pre-emergence action. The following applies: 1280 g/ha, graded after ca. 3 weeks. The procedure, abridged: as §3
Data set [16] relates to Setaria viridis (SETVI). Put plainly: Herbicidal pre-emergence action. The following applies: graded after ca. 3 weeks. The procedure, abridged: as §3
The test system of a further data set is Lolium rigidum (LOLRI). In words: Herbicidal pre-emergence action. The following applies: 320 g/ha, graded after ca. 3 weeks. Put shortly: as §3
The subject of a further data set is Viola tricolor (VIOTR). In words: Herbicidal pre-emergence action. The following applies: 1280 g/ha, graded after ca. 3 weeks. The procedure, abridged: as §3
For data set [17], the system named is Lolium multiflorum (LOLMU). In words: Herbicidal pre-emergence action. The following applies: 1280 g/ha, graded after ca. 3 weeks. The procedure, abridged:
as §3

For data set [18], the system named is Polygonum convolvulus (POLCO). Put plainly: Herbicidal pre-emergence action. The following applies: 1280 g/ha, graded after ca. 3 weeks. Put shortly:
as §3

The subject of data set [19] is Setaria viridis (SETVI). Put plainly: Herbicidal post-emergence action. The following applies: 1280 g/ha, assessed after ca. 3 weeks. Put shortly:
as §4

Data set [20] relates to Polygonum convolvulus (POLCO). In words: Herbicidal post-emergence action. The following applies: 1280 g/ha, assessed after ca. 3 weeks. The procedure, abridged:
as §4

Regarding `Cn1ncnc1NC(=O)CC1CCC(=O)N1Cc1cccc(F)c1F` (single isomer, unassigned) [Example I-075], the “post-emergence activity against BRSNW” value in the data set with Brassica napus (BRSNW) [1] stood at 0%. The “post-emergence activity against GLXMA (crop damage)” value in the data set on Glycine max (GLXMA) [2] (320 g/ha) came out at 0%. The “post-emergence activity against ZEAMX (crop damage)” value with Zea Mays (ZEAMX) [3] (320 g/ha) was 0%. For the same molecule, the “Pre-emergence activity against AVEFA” value in the data set with Avena fatua (AVEFA) [4] (320 g/ha) stood at 90%. Besides, in the data set on Avena fatua (AVEFA) [5] (1280 g/ha), the “Post-emergence activity against AVEFA” value was 100%. Besides, the “pre-emergence activity against BRSNW (crop damage)” value with Brassica napus (BRSNW) [6] is recorded as 0%. Besides, the “pre-emergence activity against GLXMA (crop damage)” value in the data set with Glycine max (GLXMA) [7] was found to be 0%. Moreover, the “pre-emergence activity against ZEAMX (crop damage)” value in the data set on Zea Mays (ZEAMX) [8] is reported as 0%.
For the molecule `Cn1ncnc1NC(=O)CC1CCC(=O)N1Cc1cccc(F)c1F` (racemic) [Example I-002], the “post-emergence activity against BRSNW” value with Brassica napus (BRSNW) [1] was found to be 0%. For the same molecule, the “post-emergence activity against GLXMA (crop damage)” value in the data set with Glycine max (GLXMA) [2] (80 g/ha) is listed as 0%. Besides, the “post-emergence activity against ZEAMX (crop damage)” value in the data set with Zea Mays (ZEAMX) [3] (80 g/ha) and in the data set with Zea Mays (ZEAMX) [3] (320 g/ha) was 0% each time. Besides, in data set [9] (320 g/ha), the “Pre-emergence activity against ALOMY” value is listed as 100%. Further, the “Pre-emergence activity against AVEFA” value in the data set on Avena fatua (AVEFA) [4] (320 g/ha) was 100%. The “Pre-emergence activity against DIGSA” value in [10] is 80%. Besides, the “Post-emergence activity against ALOMY” value in [11] (320 g/ha) is 80%. The “Post-emergence activity against ECHCG” value in [12] (320 g/ha) was 90%. The “Post-emergence activity against LOLMU” value in [13] (320 g/ha) is given as 80%. The “Post-emergence activity against AVEFA” value in the data set on Avena fatua (AVEFA) [5] (320 g/ha) worked out at 80%. The “Post-emergence activity against DIGSA” value in data set [14] is 80%. For the same molecule, in the data set on Brassica napus (BRSNW) [6], the “pre-emergence activity against BRSNW (crop damage)” value amounted to 0%. Also, the “pre-emergence activity against GLXMA (crop damage)” value in the data set with Glycine max (GLXMA) [7] is listed as 0%.
Consider `O=C(O)CC1CCC(=O)N1Cc1cccc(F)c1F` (centres unmarked) [Example I-003, 2-[1-[(2,3-difluorophenyl)methyl]-5-oxo-pyrrolidin-2-yl]acetic acid], for which the “post-emergence activity against BRSNW” value in the data set with Brassica napus (BRSNW) [1] was 0%. For the same molecule, the “Pre-emergence activity against ALOMY” value in data set [9] (1280 g/ha) was 90%. The “Pre-emergence activity against ECHCG” value in data set [15] was 80%. Moreover, the “Pre-emergence activity against SETVI” value with Setaria viridis (SETVI) [16] (1280 g/ha) turned out to be 80%. In addition, the “Pre-emergence activity against LOLRI” value in the data set on Lolium rigidum (LOLRI) was determined as 80%. In addition, the “Pre-emergence activity against VIOTR” value in the data set with Viola tricolor (VIOTR) is given as 90%. In addition, the “Pre-emergence activity against LOLMU” value in [17] amounted to 90%. In the data set with Avena fatua (AVEFA) [4] (1280 g/ha), the “Pre-emergence activity against AVEFA” value came to 90%. Besides, the “Pre-emergence activity against POLCO” value in data set [18] is recorded as 90%. Besides, the “Pre-emergence activity against DIGSA” value in [10] is listed as 90%. The “Post-emergence activity against ALOMY” value in [11] (1280 g/ha) came out at 90%. The “Post-emergence activity against ECHCG” value in data set [12] (1280 g/ha) worked out at 90%. In addition, in the data set on Setaria viridis (SETVI) [19], the “Post-emergence activity against SETVI” value is listed as 80%. In addition, the “Post-emergence activity against LOLMU” value in [13] (1280 g/ha) was 90%. The “Post-emergence activity against AVEFA” value in the data set with Avena fatua (AVEFA) [5] (1280 g/ha) is recorded as 90%. In data set [20], the “Post-emergence activity against POLCO” value was determined as 80%.
As for `COC(=O)c1ccccc1NC(=O)CC1CCC(=O)N1Cc1cccc(F)c1F` (racemic) [Example I-080], in the data set with Brassica napus (BRSNW) [1], the “post-emergence activity against BRSNW” value came out at 0%. Further, the “post-emergence activity against GLXMA (crop damage)” value with Glycine max (GLXMA) [2] (320 g/ha) is given as 0%. Moreover, the “post-emergence activity against ZEAMX (crop damage)” value with Zea Mays (ZEAMX) [3] (320 g/ha) was found to be 0%. Also, the “Pre-emergence activity against SETVI” value with Setaria viridis (SETVI) [16] (320 g/ha) turned out to be 90%. Further, in the data set on Avena fatua (AVEFA) [4] (320 g/ha), the “Pre-emergence activity against AVEFA” value turned out to be 80%. Further, the “Pre-emergence activity against DIGSA” value in data set [10] is recorded as 80%. Also, the “pre-emergence activity against BRSNW (crop damage)” value in the data set on Brassica napus (BRSNW) [6] came to 0%. Further, in the data set with Glycine max (GLXMA) [7], the “pre-emergence activity against GLXMA (crop damage)” value is on record as 0%. For the same molecule, the “pre-emergence activity against ZEAMX (crop damage)” value in the data set on Zea Mays (ZEAMX) [8] was found to be 0%.
